Patent US6375944B1, “Methods and compositions for enhancing the immunostimulatory effect of interleukin-12” (The Wistar Institute of Anatomy and Biology, priority 1998, dated 2002)
Values joined by “and” are separate entries in the source; they are usually repeats but may differ in a detail not shown here. Equal entries are not always repeated.

What was measured:
[1] = test system: NO production; assay: NO production measured as nitrite in stimulated cell supernatants by the Greiss assay; assay type: cell-based; set-up: dose or concentration left out as unconfirmed; details: cocultures of adherent cells from rmIL-12 treated mice and nonadherent control cells; compared to D-NMMA; two independent measurements
Description: (§1) Cocultures were established from splenic adherent and nonadherent cells of PBS-treated mice or from the adherent cells of rmIL-12-treated mice and nonadherent cells of PBS-treated mice. Antibodies XMG6 (to IFNγ), XT22 (to TNFα), AE5 (to IL-10) and C17.8 (to IL-12) were added to a final concentration of […] in cocultures containing adherent cells from spleen of rmIL-12-treated mice. An inhibitor of inducible nitric oxide synthase (iNOS), L-NMMA (Sigma), was added to cocultures of adherent cells from rmIL-12 treated mice and nonadherent cells from control mice at a final concentration of […]. Alternatively, D-NMMA (Sigma), a noninhibitory isoform of L-NMMA, was added to other cocultures as a control.
NO production was measured as nitrite concentration in stimulated cell supernatants by the Greiss assay [Green, L. C. et al, Anal. Biochem 126:131 (1982)]. Supernatant (100 μl) was added to 96 well plates; 100 μl of a 1:1 mixture of 1% sulfanilamide dihydrochloride in 2.5% H3PO4 and 0.1% naphthylethylenediamine dihydrochloride in 2.5% H3PO4 was then added to samples. Plates were incubated at room temperature for 10 minutes and A540 was determined using a microplate reader with reference to sodium nitrite standard curves. S-nitroso-N-acetyl-penillamine (SNAP, Sigma), an NO donor, was used as a acellular source of NO and was added to splenocytes from HKB-vaccinated C57BL/6 mice.

[2] = test system: splenocytes; assay: Mitogen and alloantigen stimulation of splenocytes (3H-thymidine incorporation), whole or adherent/nonadherent cocultures; assay type: cell-based, mice; set-up: Effect on mitogenesis / inhibition of mitogenic responses: dose or concentration left out as unconfirmed
Description: The mitogen and alloantigen stimulation of splenocytes assay was performed as follows: In vitro mitogenic stimulation of splenocytes with […] Con A or 100 U/ml rmIL-12 was performed as described [Kurzawa, cited above]. Proliferative responses to allogeneic antigens (mixed lymphocyte reaction, MLR) was measured when splenocytes from the mice were stimulated with 10^5 mitomycin treated A/J splenocytes. Splenocyte fractionation was performed by allowing 10^5 splenocytes to adhere for 90 minutes in 96 well plates, after which the nonadherent cells were removed and cocultured with adherent cells from different wells for assay. When added, antibodies (XMG6 for IFNγ, XT22 for TNFα, AE5 for IL-10 and C17.8 for IL-12 ) were used at […] final concentration. After 72 hours exposure to mitogen, cultures were pulsed with 1 μCi^3H-thymidine for 16 hours, cells were harvested and ^3H incorporation was measured by scintillation counting. Supernatants from cultures assayed for IFNγ by radioimmunoassay (RIA) (using antibodies AN18 and XMG6 [Wysocka, M. et al. 1995 Eur. J. Immunol. 25:672] were harvested 24 or 72 hours after stimulation.
A. Splenocytes from rmIL-12- and PBS-treated C57BL/6 mice were fractioned by adherence to 96 well plastic plates for 90 minutes. The cells were reconstituted in various combinations of adherent and nonadherent cells by overlaying nonadherent cells on the adherent cells. These cocultures were then stimulated with either 2.5 μg/ml Con A, 100 U/ml IL-12, or 10^5 mitomycin C treated A/J (H-2A) splenocytes, as described in the mitogen/alloantigen assay of Example 1.
B. Cocultures were established from splenic adherent and nonadherent cells of PBS-treated mice or from the adherent cells of rmIL-12-treated mice and nonadherent cells of PBS-treated mice. Antibodies XMG6 (to IFNγ), XT22 (to TNFα), AE5 (to IL-10) and C17.8 (to IL-12 ) were added to a final concentration of […] in cocultures containing adherent cells from spleen of rmIL-12-treated mice, also according to the assay described in Example 1.
as §1

[3] = test system: SCK cells; assay: SCK.GM cell vaccination followed by SCK tumor cell challenge; assay type: in vivo, A/J mice; details: for Effect on SCK.GM-induced protection: mice not treated with rmIL-12, data not shown
Description: A. Female A/J mice were vaccinated with 10^6 irradiated SCK.GM cells suspended in PBS at 10^7 trypan blue-excluding cells/ml. Cells were irradiated with 6000 rads from a ^137Cs source, and mice were vaccinated with 10^6 cells s.c. (day 0). […] Vaccinated and naive A/J mice were challenged fourteen days after vaccination with 2.5×10^4 trypan blue-excluding SCK cells in the opposite flank to assay for the presence of tumor immunity. Tumorigenesis was scored daily.

[4] = test system: SCK tumors; assay: Antitumor activity of rmIL-12 against SCK tumors (tumorigenesis scored daily); assay type: in vivo, A/J mice
Description: Female A/J mice were injected with 2.5×10^4 SCK cells and either PBS, rmIL-12, rmIL-12+L-NAME or rmIL-12 and D-NAME on days 0-4 and 7-11. Tumorigenesis was scored daily, as described above.

[5] = test system: SCK cells; assay: Irradiated wild-type SCK cell vaccination followed by SCK tumor cell challenge; assay type: in vivo, A/J mice; details: for mice that developed tumors: given with irradiated SCK cells and rmIL-12, challenged on day 14
Description: Female A/J mice (8 mice per group) were vaccinated with 10^6 irradiated SCK cells and received either PBS, rmIL-12, rmIL-12+L-NAME or rmIL-12 and D-NAME on days 0-4 and 7-11. Mice were challenged fourteen days after vaccination with 2.5×10^4 SCK cells in the opposite flank. Tumorigenesis was scored daily, as described above.

[6] = test system: SCK cells; assay: Tumor cell rechallenge in mice with established SCK immunity; assay type: in vivo, A/J mice; details: for Prevention of rmIL-12 impairment of immune rejection: given with rmIL-12 therapy, established SCK immunity; for mice that developed tumors: rmIL-12 treated mice with established SCK immunity, data not shown
Description: Thus, L-NAME prevents rmIL-12 suppression of established antitumor immune responses.

[7] = SCK-vaccinated mice, at 28 days, rmIL-12 alone, or L-NAME/D-NAME given with rmIL-12

Molecule	Effect on SCK.GM-induced protection [3]	level of protection [5, 7] [%]	mice that developed tumors [5] [%]	Prevention of rmIL-12 impairment of immune rejection [6]	mice that developed tumors [6] [%]	also measured
CNC(=N)NCCC[C@H](N)C(=O)O [L-NMMA, N^G-monomethyl-L-arginine]	–	–	–	–	–	reduction of NO levels in the culture supernatant [1]: 58% and 94%; Effect on mitogenesis ([2]; cocultures of adherent cells from rmIL-12 treated mice and nonadherent control cells, compared to D-NMMA): restored mitogenesis
S-nitroso-N-acetyl-penillamine [SNAP, reference compound]	–	–	–	–	–	inhibition of mitogenic responses ([2]; splenocytes from HKB-vaccinated C57BL/6 mice, cultures with NO levels as low as): 83-98%
COC(=O)[C@@H](N)CCCNC(=N)N[N+](=O)[O-] [L-NAME, N^ω-nitro-L-arginine methyl ester]	had no effect	50	38	prevented this impairment of immune rejection	25	Prevention of rmIL-12 impairment of SCK.GM vaccine protection ([3]; given with rmIL-12 days 0-4 and 7-11, challenge 14 days after vaccination): prevented this impairment; median days to tumor appearance ([4]; 2.5×10^4 SCK cells, treatment days 0-4 and 7-11, L-NAME given with rmIL-12, 9 days without rmIL-12): 17 days; delay of tumor appearance vs. mice given rmIL-12 alone or with D-NAME ([4]; L-NAME given with rmIL-12): 3 days; Effect on SCK tumorigenesis ([4]; given without rmIL-12, data not shown): had no effect on SCK tumorigenesis; delay of tumor appearance vs. untreated mice ([4]; treatment started on day of SCK cell injection, L-NAME given with rmIL-12): 8 days; level of protection ([5]; SCK-vaccinated, given with rmIL-12, at 14 days): 62%
COC(=O)[C@H](N)CCCNC(=N)N[N+](=O)[O-] [D-NAME, N^ω-nitro-D-arginine methyl ester]	had no effect	50	75	not	75	mice that developed tumors ([3]; SCK.GM vaccinated, given with rmIL-12, challenge 14 days after vaccination): 75%
